The source of these data is US20260240878A1, “PTP1B/TC-PTP DUAL INHIBITORS AND PROTEIN DEGRADERS” (Purdue Research Foundation, priority 2023, published 2026).

*1 amine or outer side, *2 acyl side, *3 side chain or, on linkers, in order; H or OH if unused. Where a SMILES comes first, the peptide text is derived from it. [ ]: non-standard residue; d: D form. The star is where a group is joined. NHBn(4-(4-Me-thiazol-5-yl)) = Cc1ncsc1-c1ccc(CN*)cc1; F2Pmp = N[C@@H](Cc1ccc(C(F)(F)P(=O)(O)O)cc1)C(=O)O; Phenylacetyl(4-OH,3-OMe) = COc1cc(CC(=O)*)ccc1O; Benzoyl(3-Br,4-Me) = Cc1ccc(C(=O)*)cc1Br; NH(CH2)9CO = O=C(CCCCCCCCCN[*:1])[*:2]; Hyp = O=C(O)[C@@H]1C[C@@H](O)CN1; dHyp = O=C(O)[C@H]1C[C@H](O)CN1; dTle = CC(C)(C)[C@@H](N)C(=O)O; Tle = CC(C)(C)[C@H](N)C(=O)O; 12Ado = NCCCCCCCCCCCC(=O)O; Aoc = NCCCCCCCC(=O)O; Ahp = NCCCCCCC(=O)O; Ahx = NCCCCCC(=O)O

By IC50 is commonly meant the concentration at which inhibition is half-maximal.

Assay [1] addresses T1, PTP1B (Homo sapiens, UniProt P18031).
T1 sequence (P18031 1-435): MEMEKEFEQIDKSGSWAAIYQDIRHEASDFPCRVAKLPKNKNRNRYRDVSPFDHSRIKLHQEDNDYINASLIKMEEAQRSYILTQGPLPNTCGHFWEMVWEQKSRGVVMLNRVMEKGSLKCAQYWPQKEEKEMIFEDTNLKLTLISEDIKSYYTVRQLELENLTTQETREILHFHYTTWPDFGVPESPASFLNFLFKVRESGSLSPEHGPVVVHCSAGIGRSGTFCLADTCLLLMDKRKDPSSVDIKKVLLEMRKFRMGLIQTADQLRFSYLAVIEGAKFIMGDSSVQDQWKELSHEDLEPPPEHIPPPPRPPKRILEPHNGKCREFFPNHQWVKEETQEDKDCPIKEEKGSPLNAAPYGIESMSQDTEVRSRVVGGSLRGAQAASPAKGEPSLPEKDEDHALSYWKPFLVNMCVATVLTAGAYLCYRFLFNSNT
Put plainly: PTP activity assay with pNPP substrate (IC50, Ki, mode of inhibition). Particulars: pNPP 2 mM, pH 7.0, 25° C.; read-out: IC50, nM PTP1B. In kind it is biochemical. Put shortly:
(§1)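 Hydrolysis of pNPP measured spectrophotometrically in pH 7.0 DMG buffer (EDTA, NaCl, DTT, BSA) at 25 °C, 0.4 nM enzyme. IC50 at 2 mM pNPP (Km) over an inhibitor titration; mode of inhibition and Ki from rates across varied pNPP and inhibitor levels, fitted to enzyme kinetic models.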

Assay [2] concerns the target T2, TC-PTP (Homo sapiens, UniProt P17706).
T2 sequence (P17706 1-415): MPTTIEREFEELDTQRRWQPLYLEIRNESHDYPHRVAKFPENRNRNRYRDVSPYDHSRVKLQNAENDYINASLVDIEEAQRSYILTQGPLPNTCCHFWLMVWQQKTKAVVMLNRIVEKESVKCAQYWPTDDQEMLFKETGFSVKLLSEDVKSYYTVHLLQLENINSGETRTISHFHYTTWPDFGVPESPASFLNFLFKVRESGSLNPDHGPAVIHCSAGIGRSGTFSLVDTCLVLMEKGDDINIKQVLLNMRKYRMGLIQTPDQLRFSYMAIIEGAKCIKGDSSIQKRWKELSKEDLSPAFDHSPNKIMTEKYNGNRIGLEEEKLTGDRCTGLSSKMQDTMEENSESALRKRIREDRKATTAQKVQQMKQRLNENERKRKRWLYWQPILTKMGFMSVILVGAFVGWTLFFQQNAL
The assay is described as above. Particulars: pNPP 2 mM, pH 7.0, 25° C.; read-out: IC50, nM TC-PTP. The format is biochemical. Put shortly: as §1

Assay [3] concerns the target T1, PTP1B. Briefly: Degradation assay in HEK293 cells (immunoblotting). The format is cell-based. Also noted: Degradation assay was conducted in HEK293 cells with 1 μM degrader and 24 hours incubation; endogenous in cells; host or cells: HEK293. To be noted: 1 μM degrader, 24 hours. Here is the method:
(§2) HEK293. MIAPaCa-2, HepG2, U2OS, H116, MEF, B16F10, and MC38 cells, were grown in DMEM, while Jurkat and H358 cells were grown in RPMI 1640 supplemented with 10% fetal bovine serum, penicillin (50 units/mL), and streptomycin (50 μg/mL) in a 37° C. incubator containing 5% CO2. 20 ng/ml human (Biolegend #713906) or mouse (Biolegend #714006) Interferon-γ were used for JAK/STAT pathway stimulation.
(§3) Tissues or cultured cells were lysed with ice-cold lysis buffer (50 mM Tris (pH 8.0, 150 mM NaCl, 10% Glycerol, 1% Triton-X-100) supplied with phosphatase inhibitor (Bimake) and protease inhibitor mixture (Roche Applied Science). Equal amounts of protein were resolved by SDS-PAGE, transferred to nitrocellulose membrane, and subjected to immunoblotting. Antibodies used in this study include anti-following proteins: pSTAT1^Tyr701 (Cell Signaling Technology #9167, 1:3000), GAPDH (Cell Signaling Technology #97166, 1:5000), pJAK1^Tyr1034/1035 (Cell Signaling Technology #74129, 1:1000), pJAK2^Tyr1007/1008 (Cell Signaling Technology #3776, 1:1000), TC-PTP (Abcam #ab180764, 1:3000). PTP1B (Abcam #ab244207, 1:1500).
(§4) Degradation assay was conducted in HEK293 cells with 1 μM degrader and 24 hours incubation.
(§5) The degradation assay was conducted in HEK293 cells with 0.2 μM degrader and 16 hours incubation.
A general note: Immunoblotting shows a protein as a band on a membrane.

Assay [4] concerns the target T2, TC-PTP. Put plainly: Degradation assay in HEK293 cells (immunoblotting). The format is cell-based. Also noted: Degradation assay was conducted in HEK293 cells with 1 μM degrader and 24 hours incubation; endogenous in cells; host or cells: HEK293. Particulars: 1 μM degrader, 24 hours, read-out: % Protein Degradation TC-PTP. Here is the method: as §2, §3, §4, §5
Assay [5] addresses T1, PTP1B. Put plainly: Degradation assay in HEK293 cells (immunoblotting). Details: endogenous in cells; host or cells: HEK293. Particulars: 0.2 μM degrader, 16 hours. In kind it is cell-based.
The target of assay [6] is T2, TC-PTP. Put plainly: Degradation assay in HEK293 cells (immunoblotting). The format is cell-based. Also noted: endogenous in cells; host or cells: HEK293. Particulars: 0.2 μM degrader, 16 hours, read-out: % Protein Degradation TC-PTP.

For `COc1cc(CC(=O)N[C@@H](Cc2ccccc2)C(=O)N[C@@H](Cc2ccc(C(F)(F)P(=O)(O)O)cc2)C(=O)N[C@@H](CCCCNC(=O)c2ccc(C)c(Br)c2)C(=O)NCCCCCC(=O)N[C@H](C(=O)N2C[C@H](O)C[C@H]2C(=O)NCc2ccc(-c3scnc3C)cc2)C(C)(C)C)ccc1O` [Compound 8, ((4-((S)-3-(((S)-6-(3-bromo-4-methylbenzamido)-1-((6-(((S)-1-((2S,4R)-4-hydroxy-2-((4-(4-methylthiazol-5-yl)benzyl)carbamoyl)pyrrolidin-1-yl)-3,3-dimethyl-1-oxobutan-2-yl)amino)-6-oxohexyl)amino)-1-oxohexan-2-yl)amino)-2-((S)-2-(2-(4-hydroxy-3-methoxyphenyl)acetamido)-3-phenylpropanamido)-3-oxopropyl)phenyl)difluoromethyl)phosphonic Acid] ({Phenylacetyl(4-OH,3-OMe)}-F[F2Pmp]K(Benzoyl(3-Br,4-Me))[Ahx][Tle][Hyp]-{NHBn(4-(4-Me-thiazol-5-yl))}), the IC50 worked out at 16.7 ± 0.9 nM in assay [1] and 12.8 ± 3.7 nM in assay [2]. The “% Protein Degradation PTP1B” value in assay [3] was 81%; in assay [5], 61%. Further, the percent TC-PTP degradation at 1 µM in assay [4] is 83%. Also, the percent TC-PTP degradation at 0.2 µM in assay [6] came to 58%.

Consider `COc1cc(CC(=O)N[C@@H](Cc2ccccc2)C(=O)N[C@@H](Cc2ccc(C(F)(F)P(=O)(O)O)cc2)C(=O)N[C@@H](CCCCNC(=O)c2ccc(C)c(Br)c2)C(=O)NCCCCCCC(=O)N[C@@H](C(=O)N2C[C@@H](O)C[C@@H]2C(=O)NCc2ccc(-c3scnc3C)cc2)C(C)(C)C)ccc1O` [Compound 10, ((4-((S)-3-(((S)-6-(3-bromo-4-methylbenzamido)-1-((7-(((R)-1-((2R,4S)-4-hydroxy-2-((4-(4-methylthiazol-5-yl)benzyl)carbamoyl)pyrrolidin-1-yl)-3,3-dimethyl-1-oxobutan-2-yl)amino)-7-oxoheptyl)amino)-1-oxohexan-2-yl)amino)-2-((S)-2-(2-(4-hydroxy-3-methoxyphenyl)acetamido)-3-phenylpropanamido)-3-oxopropyl)phenyl)difluoromethyl)phosphonic Acid] ({Phenylacetyl(4-OH,3-OMe)}-F[F2Pmp]K(Benzoyl(3-Br,4-Me))[Ahp][dTle][dHyp]-{NHBn(4-(4-Me-thiazol-5-yl))}), for which the IC50 in assay [1] is 7.4 ± 0.6 nM; in assay [2], 6.8 ± 0.6 nM. Moreover, the “% Protein Degradation PTP1B” value in assay [3] is recorded as 61%. For the same compound, in assay [4], the percent TC-PTP degradation at 1 µM was 69%.

Take `COc1cc(CC(=O)N[C@@H](Cc2ccccc2)C(=O)N[C@@H](Cc2ccc(C(F)(F)P(=O)(O)O)cc2)C(=O)N[C@@H](CCCCNC(=O)c2ccc(C)c(Br)c2)C(=O)NCCCCCCCCCC(=O)N[C@H](C(=O)N2C[C@H](O)C[C@H]2C(=O)NCc2ccc(-c3scnc3C)cc2)C(C)(C)C)ccc1O` [Compound 14, ((4-((S)-3-(((S)-6-(3-bromo-4-methylbenzamido)-1-((10-(((S)-1-((2S,4R)-4-hydroxy-2-((4-(4-methylthiazol-5-yl)benzyl)carbamoyl)pyrrolidin-1-yl)-3,3-dimethyl-1-oxobutan-2-yl)amino)-10-oxodecyl)amino)-1-oxohexan-2-yl)amino)-2-((S)-2-(2-(4-hydroxy-3-methoxyphenyl)acetamido)-3-phenylpropanamido)-3-oxopropyl)phenyl)difluoromethyl)phosphonic Acid] ({Phenylacetyl(4-OH,3-OMe)}-F[F2Pmp]K(Benzoyl(3-Br,4-Me))[NH(CH2)9CO][Tle][Hyp]-{NHBn(4-(4-Me-thiazol-5-yl))}): the IC50 in assay [1] turned out to be 10.3 ± 0.6 nM; in assay [2], 6.8 ± 0.3 nM. For the same compound, the “% Protein Degradation PTP1B” value in assay [3] was determined as 38%. Besides, the percent TC-PTP degradation at 1 µM in assay [4] came to 62%.

In the case of `COc1cc(CC(=O)N[C@@H](Cc2ccccc2)C(=O)N[C@@H](Cc2ccc(C(F)(F)P(=O)(O)O)cc2)C(=O)N[C@@H](CCCCNC(=O)c2ccc(C)c(Br)c2)C(=O)NCCCCCCCCCCCC(=O)N[C@H](C(=O)N2C[C@H](O)C[C@H]2C(=O)NCc2ccc(-c3scnc3C)cc2)C(C)(C)C)ccc1O` [Compound 18, ((4-((S)-3-(((S)-6-(3-bromo-4-methylbenzamido)-1-((12-(((S)-1-((2S,4R)-4-hydroxy-2-((4-(4-methylthiazol-5-yl)benzyl)carbamoyl)pyrrolidin-1-yl)-3,3-dimethyl-1-oxobutan-2-yl)amino)-12-oxododecyl)amino)-1-oxohexan-2-yl)amino)-2-((S)-2-(2-(4-hydroxy-3-methoxyphenyl)acetamido)-3-phenylpropanamido)-3-oxopropyl)phenyl)difluoromethyl)phosphonic Acid] ({Phenylacetyl(4-OH,3-OMe)}-F[F2Pmp]K(Benzoyl(3-Br,4-Me))[12Ado][Tle][Hyp]-{NHBn(4-(4-Me-thiazol-5-yl))}), the IC50 stood at 22.3 ± 1.1 nM in assay [1] and 8.9 ± 0.6 nM in assay [2]. Also, the “% Protein Degradation PTP1B” value in assay [3] was determined as 29%. Further, the percent TC-PTP degradation at 1 µM in assay [4] worked out at 30%.

As to `COc1cc(CC(=O)N[C@@H](Cc2ccccc2)C(=O)N[C@@H](Cc2ccc(C(F)(F)P(=O)(O)O)cc2)C(=O)N[C@@H](CCCCNC(=O)c2ccc(C)c(Br)c2)C(=O)NCCCCCCCC(=O)N[C@@H](C(=O)N2C[C@@H](O)C[C@@H]2C(=O)NCc2ccc(-c3scnc3C)cc2)C(C)(C)C)ccc1O` [Compound 83, ((4-((S)-3-(((S)-6-(3-bromo-4-methylbenzamido)-1-((8-(((R)-1-((2R,4S)-4-hydroxy-2-((4-(4-methylthiazol-5-yl)benzyl)carbamoyl)pyrrolidin-1-yl)-3,3-dimethyl-1-oxobutan-2-yl)amino)-8-oxooctyl)amino)-1-oxohexan-2-yl)amino)-2-((S)-2-(2-(4-hydroxy-3-methoxyphenyl)acetamido)-3-phenylpropanamido)-3-oxopropyl)phenyl)difluoromethyl)phosphonic Acid] ({Phenylacetyl(4-OH,3-OMe)}-F[F2Pmp]K(Benzoyl(3-Br,4-Me))[Aoc][dTle][dHyp]-{NHBn(4-(4-Me-thiazol-5-yl))}), the IC50 was found to be 19 ± 1.9 nM in assay [1] and 10.6 ± 0.3 nM in assay [2]. In addition, the “% Protein Degradation PTP1B” value in assay [3] is listed as 58%. In addition, in assay [4], the percent TC-PTP degradation at 1 µM was 66%.
